Data as given in patent US5573908A, “Adrenergic receptor as a proto-oncogene” (Duke University, priority 1993, dated 1996).
Changes are numbered by the printed parent chain. Values joined by “and” are separate entries in the source; they are usually repeats but may differ in a detail not shown here. Equal entries are not always repeated.

Key:
[1] = target: T1, α1B ADR (Mesocricetus auratus, UniProt P18841); assay: Ligand binding on membranes of RAT-1 fibroblast cell lines expressing the α1B ADR; set-up: species or system hamster; conditions: competition with 100 pM [125I] HEAT; membranes, two clones; read-out: NE Ki
T1 construct: expressed in transfected cells; host or cells: RAT-1 fibroblasts (vector pZIP-NeoSV(X)1), focus-derived, G418-selected lines
T1 sequence (P18841 1-515): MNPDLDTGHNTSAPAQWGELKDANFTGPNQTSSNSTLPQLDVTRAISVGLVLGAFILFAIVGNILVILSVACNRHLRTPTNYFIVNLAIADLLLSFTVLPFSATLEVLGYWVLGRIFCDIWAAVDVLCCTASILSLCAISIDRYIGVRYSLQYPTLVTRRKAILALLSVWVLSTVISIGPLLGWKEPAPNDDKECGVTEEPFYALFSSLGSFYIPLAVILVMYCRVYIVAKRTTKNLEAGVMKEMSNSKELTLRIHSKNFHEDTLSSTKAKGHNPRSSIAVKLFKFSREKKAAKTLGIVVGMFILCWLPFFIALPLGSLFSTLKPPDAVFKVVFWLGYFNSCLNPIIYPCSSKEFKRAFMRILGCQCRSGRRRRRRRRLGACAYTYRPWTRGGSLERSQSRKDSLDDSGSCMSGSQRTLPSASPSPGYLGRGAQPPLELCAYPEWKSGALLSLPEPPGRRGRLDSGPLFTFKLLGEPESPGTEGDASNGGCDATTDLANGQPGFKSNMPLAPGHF
Description: (§1) In Table 3, RAT-1 fibroblast cell lines transfected with expression vector alone or derived from transformed foci (α1B ADR or α1B ADR mutant) were selected with G418 (300 μg/ml). Ligand binding was performed on membranes prepared from two clones of each in accordance with known techniques (S. Cotecchia et al., Life Sci. 37, 2389 (1986)). For saturation binding analysis, [^125 ] HEAT concentrations ranged from 10 to 500 pM, nonspecific binding was determined using 1 μM prazosin; in competition experiments, the radioligand concentration was 100 pM. Ligand binding parameters were determined using computerized iterative nonlinear regression analysis (P. Munson, Methods in Enzymol. 92, 5432 (1983)). For assessment of receptor coupling to PI hydrolysis, cells were plated in 30 mm dishes, and labeled overnight with 3 μCi/ml of myo-[2-^3 II(N)]-inositol (1Ci=37 GBq; NEN Research Products) in DMEM containing 3.3% FBS in accordance with known techniques (S. Cotecchia et al., Proc. Natl. Acad. Sci. USA 87, 2896 (1990)). After 40 minute stimulation of cells with 10 μM norepinephrine (NE), inositol phosphates were extracted, and separated on AG 1-X8 anion exchange columns (BioRad Labs) in accordance with known techniques (S. Cotecchia et al., Proc. Natl. Acad. Sci. USA 87, 2896 (1990)). Total inositol phosphates were eluted with 1M ammonium formate/0.1M formic acid. Rmax indicates the percentage increase of total labeled inositol phosphates over basal levels following NE stimulation.

[2] = test system: NIH 3T3 fibroblasts transfected with α1B ADR; assay: Focus formation in NIH 3T3 fibroblasts transfected with α1B-ADR c-DNA; format: cell-based; conditions: NIH 3T3 transfected with α1B ADR; 10 μM NE supplemented daily, 5% FBS (Table 1)
[3] = test system: NIH 3T3 fibroblasts transfected with ras c-DNA; assay: Focus formation in NIH 3T3 fibroblasts transfected with ras c-DNA; format: cell-based; conditions: NIH 3T3 transfected with ras; 10 μM NE supplemented daily, 5% FBS (Table 1)
Description: Transfection was carried out as follows: RAT-1 fibroblasts were seeded at a density of 2×10^5 cells in Dulbecco's modified Eagle's medium (DMEM) (Gibco) containing 5% fetal bovine serum (FBS) in 100 mm dishes. Cells were grown overnight, then transfected with 10 μg of DNA (expression vector alone [pZIP-NeoSV(X)1] or containing the α1B-ADR, α1B -ADR mutant [discussed in Example 3 below] or activated Ha-ras c-DNAs) by calcium phosphate precipitation (B. Cullen, Methods Enzymol. 152, 684 (1987)). The α1B -ADR used herein was the hamster α1B -ADR described in S. Cotecchia et al., Proc. Natl. Acad. Sci. USA 85, 7159-7163 (1988). After 16 hours, the DNA precipitate was removed, the cells washed and grown for 24 hours in complete medium. Cells were split 1:5, allowed to attach overnight and then cultured in DMEM with 5% FBS alone, supplemented with 10 μM norepinephrine (NE) or G418 (300 μg/ml). […]
After transfection of plasmid DNA into RAT-1 fibroblasts, no change in phenotype or focal cell overgrowth was observed after 4 weeks in culture in the absence of added agonist (FIG. 1A). […] Agonist-induced foci represented approximately 15-25% of transfected clones with the number of G418 resistant colonies (40-60/dish) assessed in duplicate transfections. […]
FBS. The number of transformed foci were scored after 4 weeks of culture. […]
independent experiments which agreed within 25%; nd = not determined.

[4] = target: T2, α1B ADR mutant (Mesocricetus auratus, UniProt P18841, A293L/K290H/R288K); assay: Ligand binding on membranes of RAT-1 fibroblast cell lines expressing the α1B ADR mutant; set-up: species or system hamster; conditions: competition with 100 pM [125I] HEAT; membranes, two clones; read-out: NE Ki
T2 construct: expressed in transfected cells; host or cells: RAT-1 fibroblasts (vector pZIP-NeoSV(X)1), focus-derived, G418-selected lines
T2 sequence (P18841 1-515 R288K/K290H/A293L): T1 sequence (P18841 1-515) with R288K, K290H, A293L
Description: as §1

## NC[C@H](O)c1ccc(O)c(O)c1 [NE, norepinephrine]
[1]
  Ki: 5.82 µM and 5.33 µM
[2]
  Foci No. +NE: 85
[3]
  Foci No. +NE: 180
[4]
  Ki: 0.042 µM and 0.047 µM
